In patent US9603364B2 (Dow AgroSciences LLC, priority 2013, dated 2017):

How the values were obtained:
Assay in all cases: General post-emergent herbicidal activity, foliar application
Type in all cases: in vivo
[1] = test system: Zea mays L. (corn); conditions: 336 h, scored after 14 days, read-out: % Visual Growth Reduction ZEAMX; for plant injury at 35 g/ha: 35 g ai/ha; for plant injury at 70 g/ha: 70 g ai/ha; for plant injury at 140 g/ha: 140 g ai/ha; for plant injury at 280 g/ha: 280 g ai/ha
Protocol: (§1) A weighed amount, determined by the highest rate to be tested, of each test compound was placed in a 25 mL glass vial and was dissolved in 4 mL of a 97:3 v/v (volume/volume) mixture of acetone and dimethyl sulfoxide to obtain concentrated stock solutions which will be referred to as General Purpose Solvent. […] The concentrated stock solutions obtained were diluted with 20 mL of an aqueous mixture containing water, General Purpose Solvent, isopropyl alcohol, Atplus 411F crop oil concentrate, and Triton X-155 surfactant in a 46:42:12:1.0:0.02 v/v ratio to obtain spray solutions containing the highest application rates. Additional application rates were obtained by serial dilution of 12 mL of the high rate solution into a solution containing 2 mL of 97:3 v/v (volume/volume) mixture of acetone and dimethyl sulfoxide and 10 mL of an aqueous mixture containing water, General Purpose Solvent, isopropyl alcohol, Atplus 411F crop oil concentrate, and Triton X-155 surfactant in a 46:42:12:1.0:0.02 v/v ratio to obtain 1/2×, 1/4×, 1/8× and 1/16× rates of the high rate. […] Control plants were sprayed in the same manner with the solvent blank.
(§2) The treated plants and control plants were placed in a greenhouse as described above and watered by sub-irrigation to prevent wash-off of the test compounds. After 14 days, the condition of the test plants as compared with that of the untreated plants was determined visually and scored on a scale of 0 to 100 percent where 0 corresponds to no injury and 100 corresponds to complete kill.

[2] = test system: Oryza sativa L. (rice); conditions: Oryza sativa, 336 h, scored after 14 days, read-out: % Visual Growth Reduction ORYSA; for plant injury at 35 g/ha: 35 g ai/ha; for plant injury at 70 g/ha: 70 g ai/ha; for plant injury at 140 g/ha: 140 g ai/ha; for plant injury at 280 g/ha: 280 g ai/ha
Protocol: as §1, §2

[3] = test system: Chenopodium album L. (lambsquarters, common); conditions: for pest or weed control at 35 g/ha / pest or weed control at 70 g/ha / pest or weed control at 140 g/ha / pest or weed control at 280 g/ha: Chenopodium album, 336 h, foliar post-emergent, scored after 14 days, read-out: % Visual Growth Reduction CHEAL; for pest or weed control at 35 g/ha: 35 g ai/ha; for pest or weed control at 70 g/ha: 70 g ai/ha; for pest or weed control at 140 g/ha: 140 g ai/ha; for pest or weed control at 280 g/ha: 280 g ai/ha; for GR80 Value CHEAL: calculated by probit analysis, dose for 80% visual injury, may be extrapolated
Protocol: as §1, §2
(§3) By applying the well-accepted probit analysis as described by J. Berkson in […], 48, 565 (1953) and by D. Finney in “Probit Analysis” Cambridge University Press (1952), the dose response data gathered as expressed above can be used to calculate GR20, GR50 and GR80 values, which are defined as growth reduction factors that correspond to the effective dose of herbicide required to kill or control 20 percent, 50 percent or 80 percent, respectively, of a target plant. Data not expressed in Table A may have been used to calculate some of the GR80 values in Table B. In some cases, the GR80 values may be extrapolations calculated based on the slope of the dose response curve for individual compounds listed in Table B.

[4] = test system: Amaranthus retroflexus L. (pigweed, redroot); conditions: for pest or weed control at 35 g/ha / pest or weed control at 70 g/ha / pest or weed control at 140 g/ha / pest or weed control at 280 g/ha: Amaranthus retroflexus, 336 h, foliar post-emergent, scored after 14 days, read-out: % Visual Growth Reduction AMARE; for pest or weed control at 35 g/ha: 35 g ai/ha; for pest or weed control at 70 g/ha: 70 g ai/ha; for pest or weed control at 140 g/ha: 140 g ai/ha; for pest or weed control at 280 g/ha: 280 g ai/ha; for GR80 Value AMARE: calculated by probit analysis, dose for 80% visual injury, may be extrapolated
Protocol: as §1, §2, §3

[5] = test system: Euphorbia heterophylla L. (poinsettia, wild); conditions: for pest or weed control at 35 g/ha / pest or weed control at 70 g/ha / pest or weed control at 140 g/ha / pest or weed control at 280 g/ha: Euphorbia heterophylla, 336 h, foliar post-emergent, scored after 14 days, read-out: % Visual Growth Reduction EPHHL; for pest or weed control at 35 g/ha: 35 g ai/ha; for pest or weed control at 70 g/ha: 70 g ai/ha; for pest or weed control at 140 g/ha: 140 g ai/ha; for pest or weed control at 280 g/ha: 280 g ai/ha; for GR80 Value EPHHL: calculated by probit analysis, dose for 80% visual injury, may be extrapolated
Protocol: as §1, §2, §3

[6] = test system: Helianthus annuus L. (sunflower, common); conditions: for pest or weed control at 35 g/ha / pest or weed control at 70 g/ha / pest or weed control at 140 g/ha / pest or weed control at 280 g/ha: Helianthus annuus, 336 h, foliar post-emergent, scored after 14 days, read-out: % Visual Growth Reduction HELAN; for pest or weed control at 35 g/ha: 35 g ai/ha; for pest or weed control at 70 g/ha: 70 g ai/ha; for pest or weed control at 140 g/ha: 140 g ai/ha; for pest or weed control at 280 g/ha: 280 g ai/ha; for GR80 Value HELAN: calculated by probit analysis, dose for 80% visual injury, may be extrapolated
Protocol: as §1, §2, §3

[7] = test system: Echinochloa crus-galli (L.) Beauv. (barnyardgrass); conditions: for pest or weed control at 35 g/ha / pest or weed control at 70 g/ha / pest or weed control at 140 g/ha / pest or weed control at 280 g/ha: Echinochloa crus-galli, 336 h, foliar post-emergent, scored after 14 days, read-out: % Visual Growth Reduction ECHCG; for pest or weed control at 35 g/ha: 35 g ai/ha; for pest or weed control at 70 g/ha: 70 g ai/ha; for pest or weed control at 140 g/ha: 140 g ai/ha; for pest or weed control at 280 g/ha: 280 g ai/ha; for GR80 Value ECHCG: calculated by probit analysis, dose for 80% visual injury, may be extrapolated
Protocol: as §1, §2, §3

[8] = test system: Viola tricolor L. (pansy); conditions: for pest or weed control at 35 g/ha / pest or weed control at 70 g/ha / pest or weed control at 140 g/ha / pest or weed control at 280 g/ha: Viola tricolor, 336 h, foliar post-emergent, scored after 14 days, read-out: % Visual Growth Reduction VIOTR; for pest or weed control at 35 g/ha: 35 g ai/ha; for pest or weed control at 70 g/ha: 70 g ai/ha; for pest or weed control at 140 g/ha: 140 g ai/ha; for pest or weed control at 280 g/ha: 280 g ai/ha; for GR80 Value VIOTR: calculated by probit analysis, dose for 80% visual injury, may be extrapolated
Protocol: as §1, §2, §3

Nc1c(F)c(CF)nc(C(=O)O)c1Cl [Compound F36, 4-Amino-3-chloro-5-fluoro-6-(fluoromethyl)picolinic acid]
plant injury at 35 g/ha [1]: 0% | plant injury at 70 g/ha [1]: 20% | plant injury at 140 g/ha [1]: 40% | plant injury at 280 g/ha [1]: 70% | plant injury at 35 g/ha [2]: 0% | plant injury at 70 g/ha [2]: 10% | plant injury at 140 g/ha [2]: 20% | plant injury at 280 g/ha [2]: 30% | pest or weed control at 35 g/ha [3]: 80% | pest or weed control at 70 g/ha [3]: 100% | pest or weed control at 140 g/ha [3]: 100% | pest or weed control at 280 g/ha [3]: 100% | GR80 Value CHEAL [3]: 36.1 g ai/ha | pest or weed control at 35 g/ha [4]: 100% | pest or weed control at 70 g/ha [4]: 100% | pest or weed control at 140 g/ha [4]: 100% | pest or weed control at 280 g/ha [4]: 100% | GR80 Value AMARE [4]: <17.5 g ai/ha | pest or weed control at 35 g/ha [5]: 100% | pest or weed control at 70 g/ha [5]: 100% | pest or weed control at 140 g/ha [5]: 100% | pest or weed control at 280 g/ha [5]: 100% | GR80 Value EPHHL [5]: <17.5 g ai/ha | pest or weed control at 35 g/ha [6]: 70% | pest or weed control at 70 g/ha [6]: 80% | pest or weed control at 140 g/ha [6]: 85% | pest or weed control at 280 g/ha [6]: 90% | GR80 Value HELAN [6]: 70 g ai/ha | pest or weed control at 35 g/ha [7]: 50% | pest or weed control at 70 g/ha [7]: 50% | pest or weed control at 140 g/ha [7]: 80% | pest or weed control at 280 g/ha [7]: 95% | GR80 Value ECHCG [7]: 132 g ai/ha | pest or weed control at 35 g/ha [8]: 10% | pest or weed control at 70 g/ha [8]: 20% | pest or weed control at 140 g/ha [8]: 80% | pest or weed control at 280 g/ha [8]: 75% | GR80 Value VIOTR [8]: 246 g ai/ha

COC(=O)c1nc(C(F)CF)cc(N)c1Cl (stereo not shown) [Compound F28, methyl 4-amino-3-chloro-6-(1,2-difluoroethyl)picolinate]
plant injury at 70 g/ha [1]: 10% | plant injury at 140 g/ha [1]: 10% | plant injury at 280 g/ha [1]: 10% | plant injury at 70 g/ha [2]: 0% | plant injury at 140 g/ha [2]: 0% | plant injury at 280 g/ha [2]: 0% | pest or weed control at 70 g/ha [3]: 90% | pest or weed control at 140 g/ha [3]: 80% | pest or weed control at 280 g/ha [3]: 90% | GR80 Value CHEAL [3]: 17.5 g ai/ha | pest or weed control at 70 g/ha [4]: 80% | pest or weed control at 140 g/ha [4]: 100% | pest or weed control at 280 g/ha [4]: 100% | GR80 Value AMARE [4]: 66.4 g ai/ha | pest or weed control at 70 g/ha [5]: 80% | pest or weed control at 140 g/ha [5]: 100% | pest or weed control at 280 g/ha [5]: 100% | GR80 Value EPHHL [5]: 73 g ai/ha | pest or weed control at 70 g/ha [6]: 80% | pest or weed control at 140 g/ha [6]: 90% | pest or weed control at 280 g/ha [6]: 95% | GR80 Value HELAN [6]: 52.9 g ai/ha | pest or weed control at 70 g/ha [7]: 0% | pest or weed control at 140 g/ha [7]: 0% | pest or weed control at 280 g/ha [7]: 0% | GR80 Value ECHCG [7]: >280 g ai/ha | pest or weed control at 70 g/ha [8]: 15% | pest or weed control at 140 g/ha [8]: 75% | pest or weed control at 280 g/ha [8]: 90% | GR80 Value VIOTR [8]: 197 g ai/ha

COC(=O)c1nc(CCl)cc(N)c1Cl [Compound F35, methyl 4-amino-3-chloro-6-(chloromethyl)picolinate]
plant injury at 280 g/ha [1]: 0% | plant injury at 280 g/ha [2]: 0% | pest or weed control at 280 g/ha [3]: 0% | pest or weed control at 280 g/ha [4]: 0% | pest or weed control at 280 g/ha [5]: 0% | pest or weed control at 280 g/ha [6]: 0% | pest or weed control at 280 g/ha [7]: 0% | pest or weed control at 280 g/ha [8]: 0%

COC(=O)c1nc(C(C)F)c(Cl)c(N)c1Cl (stereo not shown) [Compound F10, Methyl 4-amino-3,5-dichloro-6-(1-fluoroethyl)picolinate]
plant injury at 35 g/ha [1]: 0% | plant injury at 70 g/ha [1]: 0% | plant injury at 140 g/ha [1]: 0% | plant injury at 35 g/ha [2]: 0% | plant injury at 70 g/ha [2]: 0% | plant injury at 140 g/ha [2]: 0% | pest or weed control at 35 g/ha [3]: 80% | pest or weed control at 70 g/ha [3]: 85% | pest or weed control at 140 g/ha [3]: 85% | GR80 Value CHEAL [3]: 23.7 g ai/ha | pest or weed control at 35 g/ha [4]: 85% | pest or weed control at 70 g/ha [4]: 98% | pest or weed control at 140 g/ha [4]: 100% | GR80 Value AMARE [4]: 18.1 g ai/ha | pest or weed control at 35 g/ha [5]: 0% | pest or weed control at 70 g/ha [5]: 20% | pest or weed control at 140 g/ha [5]: 30% | GR80 Value EPHHL [5]: >140 g ai/ha | pest or weed control at 35 g/ha [6]: 80% | pest or weed control at 70 g/ha [6]: 85% | pest or weed control at 140 g/ha [6]: 100% | GR80 Value HELAN [6]: 124 g ai/ha | pest or weed control at 35 g/ha [7]: 0% | pest or weed control at 70 g/ha [7]: 0% | pest or weed control at 140 g/ha [7]: 0% | GR80 Value ECHCG [7]: >140 g ai/ha | pest or weed control at 35 g/ha [8]: 0% | pest or weed control at 70 g/ha [8]: 0% | pest or weed control at 140 g/ha [8]: 0% | GR80 Value VIOTR [8]: >140 g ai/ha
